According to the NIST ThermoML archive (doi:10.1016/j.fluid.2018.09.017):
± gives the expanded uncertainty stated by the source.

Assay: molar heat capacity at constant pressure
Settings: Liquid, Flow calorimetry

CCCCCCCCC(=O)OCC [ethyl nonanoate]
Settings	molar heat capacity at constant pressure [J/K/mol]
303.21 K, 15150 kPa	369 ± 12
303.22 K, 9980 kPa	370 ± 12
303.24 K, 20090 kPa	369 ± 12
303.25 K, 5000 kPa	371 ± 12
303.27 K, 24930 kPa	368 ± 12
303.31 K, 110 kPa	371 ± 12
313.21 K, 19900 kPa	375 ± 12
313.22 K, 14910 kPa	376 ± 12
313.23 K, 170 kPa	377 ± 12
313.24 K, 9850 kPa	376 ± 12
313.24 K, 24930 kPa	374 ± 12
313.26 K, 5090 kPa	377 ± 12
323.19 K, 4970 kPa	385 ± 12
323.22 K, 110 kPa	386 ± 12
323.22 K, 24920 kPa	382 ± 12
323.23 K, 10020 kPa	384 ± 12
323.24 K, 20090 kPa	382 ± 12
323.26 K, 15190 kPa	383 ± 12
333.16 K, 4930 kPa	393 ± 13
333.18 K, 140 kPa	394 ± 13
333.18 K, 9950 kPa	393 ± 13
333.19 K, 20150 kPa	392 ± 13
333.21 K, 15110 kPa	393 ± 13
333.23 K, 25020 kPa	392 ± 13
343.19 K, 5070 kPa	400 ± 13
343.19 K, 9940 kPa	400 ± 13
343.19 K, 14950 kPa	400 ± 13
343.2 K, 110 kPa	401 ± 13
343.21 K, 19870 kPa	399 ± 13
343.22 K, 25210 kPa	399 ± 13
353.11 K, 4910 kPa	407 ± 13
353.14 K, 160 kPa	407 ± 13
353.14 K, 10160 kPa	406 ± 13
353.15 K, 14930 kPa	406 ± 13
353.2 K, 20210 kPa	405 ± 13
353.23 K, 25190 kPa	405 ± 13
363.12 K, 110 kPa	414 ± 13
363.14 K, 5090 kPa	413 ± 13
363.16 K, 15060 kPa	412 ± 13
363.17 K, 10020 kPa	413 ± 13
363.17 K, 20130 kPa	411 ± 13
363.19 K, 25160 kPa	410 ± 13
373.12 K, 100 kPa	420 ± 13
373.12 K, 4830 kPa	420 ± 13
373.13 K, 10020 kPa	419 ± 13
373.13 K, 15150 kPa	418 ± 13
373.14 K, 20170 kPa	418 ± 13
373.14 K, 24950 kPa	417 ± 13
383.18 K, 160 kPa	427 ± 14
383.2 K, 4950 kPa	426 ± 14
383.2 K, 10190 kPa	425 ± 14
383.2 K, 15000 kPa	425 ± 14
383.22 K, 20130 kPa	424 ± 14
383.22 K, 24950 kPa	424 ± 14
393.18 K, 110 kPa	434 ± 14
393.18 K, 5090 kPa	433 ± 14
393.18 K, 10020 kPa	433 ± 14
393.19 K, 15150 kPa	433 ± 14
393.2 K, 20190 kPa	432 ± 14
393.24 K, 24960 kPa	432 ± 14

CCCCCCCCCCCC(=O)OCC [ethyl dodecanoate]
Settings	molar heat capacity at constant pressure [J/K/mol]
313.26 K, 5030 kPa	472 ± 14
313.26 K, 9990 kPa	471 ± 14
313.27 K, 140 kPa	474 ± 14
313.27 K, 14970 kPa	470 ± 14
313.28 K, 25150 kPa	469 ± 14
313.29 K, 20040 kPa	470 ± 14
323.22 K, 160 kPa	480 ± 14
323.22 K, 20140 kPa	475 ± 14
323.22 K, 25150 kPa	474 ± 14
323.23 K, 4980 kPa	478 ± 14
323.23 K, 10110 kPa	477 ± 14
323.23 K, 14920 kPa	476 ± 14
333.2 K, 140 kPa	487 ± 15
333.2 K, 4920 kPa	485 ± 15
333.2 K, 10150 kPa	483 ± 15
333.2 K, 15060 kPa	482 ± 14
333.2 K, 19970 kPa	481 ± 14
333.21 K, 25020 kPa	480 ± 14
343.15 K, 140 kPa	493 ± 15
343.16 K, 5160 kPa	491 ± 15
343.16 K, 10270 kPa	489 ± 15
343.19 K, 15130 kPa	488 ± 15
343.19 K, 20220 kPa	487 ± 15
343.21 K, 25180 kPa	486 ± 15
353.14 K, 180 kPa	501 ± 15
353.14 K, 4970 kPa	498 ± 15
353.17 K, 9950 kPa	496 ± 15
353.17 K, 14920 kPa	494 ± 15
353.17 K, 20020 kPa	492 ± 15
353.18 K, 24950 kPa	491 ± 15
363.17 K, 110 kPa	508 ± 15
363.18 K, 5010 kPa	507 ± 15
363.29 K, 10190 kPa	505 ± 15
363.29 K, 15070 kPa	503 ± 15
363.29 K, 20150 kPa	501 ± 15
363.29 K, 25100 kPa	500 ± 15
373.19 K, 110 kPa	516 ± 16
373.2 K, 4900 kPa	514 ± 15
373.21 K, 10170 kPa	512 ± 15
373.21 K, 15020 kPa	511 ± 15
373.22 K, 19850 kPa	509 ± 15
373.25 K, 24930 kPa	508 ± 15
383.23 K, 100 kPa	523 ± 16
383.23 K, 5000 kPa	521 ± 16
383.23 K, 10040 kPa	520 ± 16
383.24 K, 15080 kPa	518 ± 16
383.25 K, 19940 kPa	517 ± 16
383.28 K, 25150 kPa	515 ± 15
393.2 K, 4910 kPa	530 ± 16
393.22 K, 110 kPa	532 ± 16
393.22 K, 10100 kPa	530 ± 16
393.23 K, 19780 kPa	528 ± 16
393.27 K, 15020 kPa	529 ± 16
393.27 K, 24830 kPa	527 ± 16
